Results reported in US20130059783A1, “COMPOSITIONS AND METHODS FOR EXPANDING BFU-E CELLS” (priority 2010, published 2013).

Test system: mRNA expression in BFU-E cells
Assay: mRNA-Seq of BFU-E cells cultured 4 hours with or without Dex (Table S3)
Assay type: cell-based, mouse
Conditions: for Expression level log2((100 nM DEX)* (0 nM DEX)) / Expression of mRNA in BFU-E after 4 h 100 nM DEX (RPKM) / Expression change log2 ((100 nM DEX)/(0 nM DEX)) / Expression change log2 ((100 nM DEX)/(0 nM DEX))2: BFU-E, 4 h; for Expression change log2 ((100 nM DEX)/(0 nM DEX)): 100 nM vs 0 nM DEX
Source text: FIGS. 2A-2B. The effect of glucocorticoids on miRNA and mRNA expression in BFU-E cells determined by next generation sequencing. […] Both mRNAs and miRNAs were subjected to Illumina deep sequencing. […] (B) A plot similar to that in A for expression of individual mRNAs. mRNA expression was normalized using the RPKM method, which determines the relative expression of each gene to all expressed genes by giving each gene an RPKM count (number of uniquely aligning reads per kb exon per million total reads). […]
To minimize the risk of false positive GC target genes we chose to compare only highly expressed genes (≈10,000 genes with a multiplied RPKM count >4) (Mortazavi et al., 2008).
Samples for Paired-End mRNA-Seq were prepared using the Solexa kit according to the manufacturer's instructions with the exception that we extracted 300 bp bands, before and after the PCR step (Illumina). Images acquired from the Solexa sequencer were processed through the bundled Solexa image extraction pipeline version 1.4. mRNA-Seq reads were aligned to mouse NCBI build 37 (mm9) using ELAND, Briefly, the first 32 bases of a read were used as a seed. Each matched seed was then extended up to 36 bases and scored to break any ties between multi-matches. For mRNA expression counts, unique reads in the genome that landed within any exons of NCBI gene models (v37.1) were counted. The counts were normalized by the mRNA length to get the final RPKM values (i.e. reads per KB per million reads).

[1] = BFU-E cells, 4 hours, 100 nM Dex
[2] = gene 38413 (membrane-associated ring finger (C3HC4) 3)

C[C@@H]1C[C@H]2[C@@H]3CCC4=CC(=O)C=C[C@]4(C)[C@@]3(F)[C@@H](O)C[C@]2(C)[C@@]1(O)C(=O)CO [Dex, dexamethasone]
Upregulation of Ddit4 (BFU-E cells, 4 hours): > 8 fold | Genes differentially expressed (more than a factor of 2) [1]: 195 genes | Genes down regulated (more than a factor of 2) [1]: 112 genes | Genes up regulated (more than a factor of 2) [1]: 83 genes | Expression level log2((100 nM DEX)* (0 nM DEX)) [2]: 4.94 | Expression of mRNA in BFU-E after 4 h 100 nM DEX (RPKM) [2]: 8.25 RPKM | Expression of mRNA in BFU-E after 4 h 100 nM DEX (RPKM) (gene 0610040J01Rik): 14.77 RPKM | Expression change log2 ((100 nM DEX)/(0 nM DEX)) (gene 0610040J01Rik): 2.84 | Expression of mRNA in BFU-E after 4 h 100 nM DEX (RPKM) (gene Acp5): 20.40 RPKM | Expression change log2 ((100 nM DEX)/(0 nM DEX)) (gene Acp5): 2.70 | Expression of mRNA in BFU-E after 4 h 100 nM DEX (RPKM) (gene Ampd3): 15.71 RPKM | Expression of mRNA in BFU-E after 4 h 100 nM DEX (RPKM) (gene Ank): 48.60 RPKM | Expression change log2 ((100 nM DEX)/(0 nM DEX)) (gene Ank): 2.06 | Expression change log2 ((100 nM DEX)/(0 nM DEX))2 (gene Aqp3): 1.34 | Expression of mRNA in BFU-E after 4 h 100 nM DEX (RPKM) (gene Aqp3): 6.98 RPKM | Expression of mRNA in BFU-E after 4 h 100 nM DEX (RPKM) (gene Arhgef3): 16.21 RPKM | Expression change log2 ((100 nM DEX)/(0 nM DEX)) (gene Arhgef3): 2.88 | Expression level log2((100 nM DEX)* (0 nM DEX)) (gene Atp2b4): 9.79 | Expression of mRNA in BFU-E after 4 h 100 nM DEX (RPKM) (gene Atp2b4): 43.89 RPKM | Expression of mRNA in BFU-E after 4 h 100 nM DEX (RPKM) (gene Bcl2): 6.45 RPKM | Expression change log2 ((100 nM DEX)/(0 nM DEX)) (gene Bcl2): 1.69 | Expression of mRNA in BFU-E after 4 h 100 nM DEX (RPKM) (gene Cables1): 4.90 RPKM | Expression change log2 ((100 nM DEX)/(0 nM DEX))2 (gene Ccnd1): 1.34 | Expression level log2((100 nM DEX)* (0 nM DEX)) (gene Ccnd1): 3.76 | Expression of mRNA in BFU-E after 4 h 100 nM DEX (RPKM) (gene Ccnd1): 5.86 RPKM | Expression level log2((100 nM DEX)* (0 nM DEX)) (gene Cd59a): 2.18 | Expression of mRNA in BFU-E after 4 h 100 nM DEX (RPKM) (gene Cd59a): 3.15 RPKM | Expression of mRNA in BFU-E after 4 h 100 nM DEX (RPKM) (gene Clca1): 7.54 RPKM | Expression change log2 ((100 nM DEX)/(0 nM DEX)) (gene Clca1): 2.07 | Expression level log2((100 nM DEX)* (0 nM DEX)) (gene Clcn2): 5.04 | Expression of mRNA in BFU-E after 4 h 100 nM DEX (RPKM) (gene Clcn2): 8.78 RPKM | Expression level log2((100 nM DEX)* (0 nM DEX)) (gene Clint1): 15.15 | Expression of mRNA in BFU-E after 4 h 100 nM DEX (RPKM) (gene Clint1): 285.78 RPKM | Expression of mRNA in BFU-E after 4 h 100 nM DEX (RPKM) (gene Clstn1): 70.51 RPKM | Expression change log2 ((100 nM DEX)/(0 nM DEX)) (gene Clstn1): 1.72 | Expression level log2((100 nM DEX)* (0 nM DEX)) (gene Cyth3): 11.35 | Expression of mRNA in BFU-E after 4 h 100 nM DEX (RPKM) (gene Cyth3): 75.31 RPKM | Expression of mRNA in BFU-E after 4 h 100 nM DEX (RPKM) (gene Ddit4): 20.23 RPKM | Expression change log2 ((100 nM DEX)/(0 nM DEX)) (gene Ddit4): 3.08 | Expression level log2((100 nM DEX)* (0 nM DEX)) (gene E430018J23Rik): 2.10 | Expression of mRNA in BFU-E after 4 h 100 nM DEX (RPKM) (gene E430018J23Rik): 3.02 RPKM | Expression of mRNA in BFU-E after 4 h 100 nM DEX (RPKM) (gene Egln3): 16.47 RPKM | Expression change log2 ((100 nM DEX)/(0 nM DEX)) (gene Egln3): 3.00 | Expression of mRNA in BFU-E after 4 h 100 nM DEX (RPKM) (gene Egr1): 18.06 RPKM | Expression of mRNA in BFU-E after 4 h 100 nM DEX (RPKM) (gene Fam46a): 6.44 RPKM | Expression change log2 ((100 nM DEX)/(0 nM DEX)) (gene Fam46a): 1.68 | Expression of mRNA in BFU-E after 4 h 100 nM DEX (RPKM) (gene Fam46c): 13.90 RPKM | Expression level log2((100 nM DEX)* (0 nM DEX)) (gene Fam55c): 5.91 | Expression of mRNA in BFU-E after 4 h 100 nM DEX (RPKM) (gene Fam55c): 11.20 RPKM | Expression of mRNA in BFU-E after 4 h 100 nM DEX (RPKM) (gene Fam83g): 8.67 RPKM | Expression level log2((100 nM DEX)* (0 nM DEX)) (gene Fes): 2.34 | Expression of mRNA in BFU-E after 4 h 100 nM DEX (RPKM) (gene Fes): 3.48 RPKM | Expression of mRNA in BFU-E after 4 h 100 nM DEX (RPKM) (gene Fkbp5): 74.76 RPKM | Expression change log2 ((100 nM DEX)/(0 nM DEX)) (gene Fkbp5): 1.71 | Expression level log2((100 nM DEX)* (0 nM DEX)) (gene Fkbp11): 9.88 | Expression of mRNA in BFU-E after 4 h 100 nM DEX (RPKM) (gene Fkbp11): 44.44 RPKM | Expression of mRNA in BFU-E after 4 h 100 nM DEX (RPKM) (gene Frmd4a): 28.77 RPKM | Expression change log2 ((100 nM DEX)/(0 nM DEX)) (gene Frmd4a): 2.03 | Expression level log2((100 nM DEX)* (0 nM DEX)) (gene Glul): 12.54 | Expression of mRNA in BFU-E after 4 h 100 nM DEX (RPKM) (gene Glul): 110.54 RPKM | Expression change log2 ((100 nM DEX)/(0 nM DEX))2 (gene Gm129): 1.01 | Expression level log2((100 nM DEX)* (0 nM DEX)) (gene Gm129): 2.29 | Expression of mRNA in BFU-E after 4 h 100 nM DEX (RPKM) (gene Gm129): 3.14 RPKM | Expression of mRNA in BFU-E after 4 h 100 nM DEX (RPKM) (gene Gna14): 3.37 RPKM | Expression level log2((100 nM DEX)* (0 nM DEX)) (gene Gng13): 3.81 | Expression of mRNA in BFU-E after 4 h 100 nM DEX (RPKM) (gene Gng13): 5.76 RPKM | Expression of mRNA in BFU-E after 4 h 100 nM DEX (RPKM) (gene Gsta4): 9.00 RPKM | Expression change log2 ((100 nM DEX)/(0 nM DEX)) (gene Gsta4): 2.60 | Expression of mRNA in BFU-E after 4 h 100 nM DEX (RPKM) (gene Hif3a): 101.46 RPKM | Expression change log2 ((100 nM DEX)/(0 nM DEX)) (gene Hif3a): 1.38 | Expression of mRNA in BFU-E after 4 h 100 nM DEX (RPKM) (gene Hopx): 13.32 RPKM | Expression change log2 ((100 nM DEX)/(0 nM DEX)) (gene Hopx): 1.82 | Expression of mRNA in BFU-E after 4 h 100 nM DEX (RPKM) (gene Hp): 4.41 RPKM | Expression change log2 ((100 nM DEX)/(0 nM DEX))2 (gene Ier2): 1.05 | Expression level log2((100 nM DEX)* (0 nM DEX)) (gene Ier2): 10.07 | Expression of mRNA in BFU-E after 4 h 100 nM DEX (RPKM) (gene Ier2): 47.27 RPKM | Expression level log2((100 nM DEX)* (0 nM DEX)) (gene Ier3): 3.80 | Expression of mRNA in BFU-E after 4 h 100 nM DEX (RPKM) (gene Itgb3): 7.39 RPKM | Expression change log2 ((100 nM DEX)/(0 nM DEX)) (gene Itgb3): 2.37
